Values after ≈ are worked out from the molar mass of the structure shown.
How the values were obtained:
[1] = system: HIV-1 IIIB strain; assay: MT-4 HIV Wild Type Virus Infection Assay (IIIB Virus); format: cell-based; details: Human immunodeficiency virus 1, IIIB, MT4, 120 h, MT-4 cells acutely infected with HIV-1 IIIB, 5 day incubation, Cell-titer glo
Outline: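 MT-4 cells at 2×10^6 cells/ml in RPMI/10% FBS were acutely infected with HIV-1 IIIB for 1 h at 37° C, diluted 25× and added to serially diluted compounds. After 5 days at 37° C, viability read by CellTiter-Glo luminescence; EC50 from dose-response curves.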

[2] = target: bovine intestinal alkaline phosphatase (Bos taurus (Bovine), UniProt P19111); assay: BiALP: conversion by bovine intestinal alkaline phosphatase; format: in vitro ADME; details: 2 μM substrate, 100 ng/mL iALP, Tris pH 7.8, 37° C., 60 minutes; for [Intermediate A] or [Amprenavir]: parent formed
Outline: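 LC-MS (positive mode) quantified analyte/internal-standard peak area ratios, referenced to 2 μM parent product. This followed a 60 min, 37° C reaction of 2 μM substrate in Tris buffer pH 7.8 (1 mM MgCl2, 1 mM ZnCl2) containing 100 ng/mL iALP or buffer alone, run in triplicate.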

[3] = Intestinal S9 Assay (human GI S9); format: in vitro ADME; details: 1.0 mg/mL S9 protein; for half-life at 2 μM: human, TRIS pH 7.4, read-out: Human GI S9 T½
Outline: (§1)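 Pooled dog or human intestinal S9 at 1.0 mg/mL protein in TRIS buffer pH 7.4 with ZnCl2 and MgCl2; compound at 2 μM, sampled 0–120 min and quenched. Remaining parent by LC-MS peak area ratio; half-life from first-order exponential decline fit.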

[4] = Intestinal S9 Assay (dog GI S9); format: in vitro ADME; details: 1.0 mg/mL S9 protein; for Dog GI S9 [Intermediate A] / Dog GI S9 [Intermediate A] %: 2 μM, TRIS pH 7.4; for half-life at 2 μM: dog, TRIS pH 7.4, read-out: Dog GI S9 T½
Outline: as §1

[5] = PBS Stability Assay; format: physicochemical; details: phosphate buffered saline pH 7.4; for half-life at 2 μM: buffer, pH 7.4, 2 μM, read-out: PBS T½; for PBS T½: 2 μM
Outline: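 Half-life derives from first-order exponential decline of % compound remaining, quantified by LC-MS analyte/internal-standard peak-area ratio. Compound (2 μM final) sat in pH 7.4 phosphate-buffered saline, with aliquots quenched into acidified acetonitrile containing labetalol from 0 to 120 min.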

[6] = Solubility in FaSSIF; details: 23 °C, pH 6.5, fassif, thermodynamic from solid
Outline: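 Concentration measured by HPLC-UV after solid compound was dosed at 5 mg/mL into pH 6.5 fasted-state simulated intestinal fluid containing taurocholate and lecithin (4:1 molar) and vortexed.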

bovine intestinal alkaline phosphatase, sequence (P19111 20-506): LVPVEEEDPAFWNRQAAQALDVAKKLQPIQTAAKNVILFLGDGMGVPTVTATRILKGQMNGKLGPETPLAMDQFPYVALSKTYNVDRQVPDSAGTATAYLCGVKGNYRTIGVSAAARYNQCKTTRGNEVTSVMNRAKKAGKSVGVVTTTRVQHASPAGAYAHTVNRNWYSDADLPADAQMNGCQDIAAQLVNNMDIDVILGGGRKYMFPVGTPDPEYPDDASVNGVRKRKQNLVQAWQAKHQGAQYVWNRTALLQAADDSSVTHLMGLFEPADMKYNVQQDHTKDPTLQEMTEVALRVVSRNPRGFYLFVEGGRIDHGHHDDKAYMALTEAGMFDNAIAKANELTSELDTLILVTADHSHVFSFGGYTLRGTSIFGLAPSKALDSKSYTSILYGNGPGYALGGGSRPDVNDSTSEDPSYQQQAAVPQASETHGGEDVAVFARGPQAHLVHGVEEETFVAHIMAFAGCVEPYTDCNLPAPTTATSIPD

| Compound | EC50 [1] [nM] | [Compound] [2] [nM] | biALP Intermediate A or [Amprenavir] (% of total) [2] | [Intermediate A] or [Amprenavir] [2] [nM] | Human GI S9 [Intermediate A] ([3]; 2 μM, TRIS pH 7.4) [nM] | Human GI S9 [Intermediate A] % ([3]; 2 μM, TRIS pH 7.4) [%] | half-life at 2 μM [3] [h] | Dog GI S9 [Intermediate A] [4] [nM] | Dog GI S9 [Intermediate A] % [4] [%] | half-life at 2 μM [4] [h] | half-life at 2 μM [5] [h] | solubility at 2 h [6] [µg/mL] | PBS T½ [5] [h] | Human GI S9 T½ ([3]; 2 μM, TRIS pH 7.4) [h] |
| --- | --- | --- | --- | --- | --- | --- | --- | --- | --- | --- | --- | --- | --- | --- |
| COC(=O)N[C@H](C(=O)N[C@@H](Cc1ccc(C#Cc2cnc(N3CC4CCC(C3)N4C3COC3)nc2)cc1)[C@H](CN(Cc1c(F)cc(-c2ccn(C(F)F)n2)cc1F)NC(=O)[C@@H](NC(=O)OC)C(C)(C)C(F)(F)F)OC(=O)CC(C)(C)c1c(CC(=O)N2C[C@@H](C(=O)O)C[C@H]2C(=O)O)cc(C)cc1OP(=O)(O)O)C(C)(C)C(F)(F)F [Example 10] | 418 | 1868.8 | 4.9 % of total | 95.5 | 86.8 | 7.3 | 9.22 | 228.1 | 18.4 | 4.24 | 9.92 | 3120 (≈ 1920 µM) |  |  |
| COC(=O)N[C@H](C(=O)N[C@@H](Cc1ccc(C#Cc2cnc(N3CC4CCC(C3)N4C3COC3)nc2)cc1)[C@H](CN(Cc1c(F)cc(-c2ccn(C(F)F)n2)cc1F)NC(=O)[C@@H](NC(=O)OC)C(C)(C)C(F)(F)F)OC(=O)CC(C)(C)c1c(CC(=O)Nc2cccc(C(=O)O)c2)cc(C)cc1OP(=O)(O)O)C(C)(C)C(F)(F)F [Example 14] | 178 | 2276.6 | 2.2 % of total | 50.3 | 58.5 | 3.9 | 10.1 | 210.8 | 13.8 | 6.69 | 5.58 | < 1000 |  |  |
| COC(=O)N[C@H](C(=O)N[C@@H](Cc1ccc(C#Cc2ccc(N3CC4CCC(C3)N4C3COC3)nc2)cc1)[C@H](CN(Cc1c(F)cc(-c2ccn(C(F)F)n2)cc1F)NC(=O)[C@@H](NC(=O)OC)C(C)(C)C(F)(F)F)OC(=O)CC(C)(C)c1c(CC(=O)Nc2cccc(C(=O)OO)c2)cc(C)cc1CP(=O)(O)O)C(C)(C)C(F)(F)F [Example 15] | 162 | 2690.4 |  |  |  |  | 8.95 |  |  | 3.95 | 4.8 | < 1000 |  |  |
| COC(=O)N[C@H](C(=O)N[C@@H](Cc1ccc(C#Cc2cnc(N3CC4CCC(C3)N4C3COC3)nc2)cc1)[C@H](CN(Cc1c(F)cc(-c2ccn(C(F)F)n2)cc1F)NC(=O)[C@@H](NC(=O)OC)C(C)(C)C(F)(F)F)OC(=O)CC(C)(C)c1c(CC(=O)NCCS(=O)(=O)O)cc(C)cc1OP(=O)(O)O)C(C)(C)C(F)(F)F [Example 24] | 130 | 1717.9 |  |  |  |  | 3.78 |  |  | 2.24 |  | 4660 (≈ 2920 µM) | 13.2 |  |
| COC(=O)N[C@H](C(=O)N[C@@H](Cc1ccc(C#Cc2cnc(N3CC4CCC(C3)N4C3COC3)nc2)cc1)[C@H](CN(Cc1c(F)cc(-c2ccn(C(F)F)n2)cc1F)NC(=O)[C@@H](NC(=O)OC)C(C)(C)C(F)(F)F)OC(=O)CC(C)(C)c1c(CC(=O)NCC(=O)NS(C)(=O)=O)cc(C)cc1OP(=O)(O)O)C(C)(C)C(F)(F)F [Example 27, (5S,10S,11S,14S)-8-(4-(1-(difluoromethyl)-1H-pyrazol-3-yl)-2,6-difluorobenzyl)-11-(4-((2-(8-(oxetan-3-yl)-3,8-diazabicyclo[3.2.1]octan-3-yl)pyrimidin-5-yl)ethynyl)benzyl)-3,6,13,16-tetraoxo-5,14-bis(1,1,1-trifluoro-2-methylpropan-2-yl)-2,17-dioxa-4,7,8,12,15-pentaazaoctadecan-10-yl 3-methyl-3-(4-methyl-2-(2-((2-(methylsulfonamido)-2-oxoethyl)amino)-2-oxoethyl)-6-(phosphonooxy)phenyl)butanoate] | 173 | 2082.4 |  |  |  |  | 2.46 |  |  | 1.82 | 6.41 | 4420 (≈ 2730 µM) |  |  |
| COC(=O)N[C@H](C(=O)N[C@@H](Cc1ccc(C#Cc2cnc(N3CC4CCC(C3)N4C3COC3)nc2)cc1)[C@H](CN(Cc1c(F)cc(-c2ccn(C(F)F)n2)cc1F)NC(=O)[C@@H](NC(=O)OC)C(C)(C)C(F)(F)F)OC(=O)CC(C)(C)c1c(CC(=O)NC/C(N)=N/O)cc(C)cc1OP(=O)(O)O)C(C)(C)C(F)(F)F [Example 28, (5S,10S,11S,14S)-8-(4-(1-(difluoromethyl)-1H-pyrazol-3-yl)-2,6-difluorobenzyl)-11-(4-((2-(8-(oxetan-3-yl)-3,8-diazabicyclo[3.2.1]octan-3-yl)pyrimidin-5-yl)ethynyl)benzyl)-3,6,13,16-tetraoxo-5,14-bis(1,1,1-trifluoro-2-methylpropan-2-yl)-2,17-dioxa-4,7,8,12,15-pentaazaoctadecan-10-yl 3-(2-(2-(((Z)-2-amino-2-(hydroxyimino)ethyl)amino)-2-oxoethyl)-4-methyl-6-(phosphonooxy)phenyl)-3-methylbutanoate] | 307 | 2478.7 |  |  |  |  |  |  |  | 11.4 |  | 15 (≈ 9.64 µM) | 13.2 | 13.2 |
| COC(=O)N[C@H](C(=O)N[C@@H](Cc1ccc(C#Cc2cnc(N3CC4CCC(C3)N4C3COC3)nc2)cc1)[C@H](CN(Cc1c(F)cc(-c2ccn(C(F)F)n2)cc1F)NC(=O)[C@@H](NC(=O)OC)C(C)(C)C(F)(F)F)OC(=O)CC(C)(C)c1c(CC(=O)N[C@@]2(C(=O)O)CCOC2)cc(C)cc1OP(=O)(O)O)C(C)(C)C(F)(F)F [Example 29] | 213 | 1878.7 |  |  |  |  | 3.31 |  |  | 0.822 | 8.62 | 4970 (≈ 3110 µM) |  |  |
| COC(=O)N[C@H](C(=O)N[C@@H](Cc1ccc(C#Cc2cnc(N3CC4CCC(C3)N4C3COC3)nc2)cc1)[C@H](CN(Cc1c(F)cc(-c2ccn(C(F)F)n2)cc1F)NC(=O)[C@@H](NC(=O)OC)C(C)(C)C(F)(F)F)OC(=O)CC(C)(C)c1c(CC(=O)N[C@]2(C(=O)O)CCOC2)cc(C)cc1OP(=O)(O)O)C(C)(C)C(F)(F)F [Example 30] | 197 | 1521.8 |  |  |  |  | 4.11 |  |  | 1.17 | 8.56 | 5370 (≈ 3360 µM) |  |  |
| COC(=O)N[C@H](C(=O)N[C@@H](Cc1ccc(C#Cc2cnc(N3CC4CCC(C3)N4C3COC3)nc2)cc1)[C@H](CN(Cc1c(F)cc(-c2ccn(C(F)F)n2)cc1F)NC(=O)[C@@H](NC(=O)OC)C(C)(C)C(F)(F)F)OC(=O)CC(C)(C)c1c(CC(=O)N[C@@H](CCS(=O)(=O)O)C(=O)O)cc(C)cc1OP(=O)(O)O)C(C)(C)C(F)(F)F [Example 33] | 65.7 | 1487.1 |  |  |  |  | 3.72 |  |  | 1.51 | 5.71 | 4240 (≈ 2570 µM) |  |  |
| COC(=O)N[C@H](C(=O)N[C@@H](Cc1ccc(C#Cc2cnc(N3CC4CCC(C3)N4C3COC3)nc2)cc1)[C@H](CN(Cc1c(F)cc(-c2ccn(C(F)F)n2)cc1F)NC(=O)[C@@H](NC(=O)OC)C(C)(C)C(F)(F)F)OC(=O)CC(C)(C)c1c(CC(=O)NC(CCP(=O)(O)O)C(=O)O)cc(C)cc1OP(=O)(O)O)C(C)(C)C(F)(F)F (stereo partly drawn) [Example 35] | 65.7 | 2145.2 |  |  |  |  | 3.21 |  |  | 0.235 | 3.27 | 3560 (≈ 2160 µM) |  |  |

Source: US20250051375A1, “ANTI-HIV COMPOUNDS” (Gilead Sciences, Inc., priority 2023, published 2025)
